Measurements as given in PubChem BioAssay (NCI).
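How tested: cells in 96-well plates exposed to compound for 48 hours at five concentrations. GI50 is the concentration that inhibits growth by half. At the TGI there is no net growth.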

Legend:
Assay in all cases: inhibition of tumour cell growth, NCI panel, 48 h
[1] = system: A549 NSCLC
[2] = system: HCC-2998 colon
[3] = system: MALME-3M melanoma
[4] = system: MOLT-4 leukemia
[5] = system: NCI-H226 lung
[6] = system: SF-268 CNS
[7] = system: SR leukemia
[8] = system: HS 578T breast
[9] = system: K-562 leukemia
[10] = system: HL-60(TB) leukemia

| Compound | TGI [1] [µM] | TGI [2] [µM] | TGI [3] [µM] | TGI [4] [µM] | TGI [5] [µM] | TGI [6] [µM] | TGI [7] [µM] | GI50 [1] [µM] | GI50 [2] [µM] | GI50 [8] [µM] | TGI [8] [µM] | GI50 [9] [µM] | TGI [9] [µM] | GI50 [3] [µM] | GI50 [4] [µM] | GI50 [5] [µM] | GI50 [6] [µM] | GI50 [7] [µM] | GI50 [10] [µM] | TGI [10] [µM] |
| --- | --- | --- | --- | --- | --- | --- | --- | --- | --- | --- | --- | --- | --- | --- | --- | --- | --- | --- | --- | --- |
| CN1C(=O)C23CC4=CC=CC(O)C4N2C(=O)C1(CO)SS3 (stereo not given) | 0.318 | 0.351 | 0.449 | 0.447 | 0.152 | 0.489 | 0.0996 | – | – | – | – | – | – | – | – | – | – | – | – | – |
| N#Cc1ccc(N2Cc3cc(Cl)ccc3OC3=C2C(=O)N(Cc2ccccc2)C3=O)cc1 | 26.7 | 3.65 | 3.08 | 0.818 | 6.78 | 3.89 | 0.828 | 10.1 | 1.89 | 2.62 | 9.25 | 0.359 | 2.02 | 1.44 | 0.25 | 1.93 | 1.75 | 0.242 | – | – |
| Nc1ncnc2c1ncn2Cc1ccc(C23CC4CC(CC(C4)C2)C3)c(O)c1 | 77.4 | 82.1 | > 100 | > 100 | > 100 | > 100 | – | 6.52 | 12.4 | 10.7 | 69.7 | – | – | 12.6 | 6.72 | > 100 | 21.1 | – | 5.06 | > 100 |
| COC1C(CO)OC(n2c3ccccc3c3c4c(c5c6ccccc6[nH]c5c32)C(=O)NC4=O)C(O)C1OC(=O)C(N)CCCCN (stereo not given) | > 50 | 17.8 | 0.946 | > 50 | 9.59 | 14.5 | – | 3.27 | 1.57 | 1.93 | 12.2 | 0.414 | > 50 | 0.11 | 0.178 | 0.777 | 0.379 | – | 0.231 | > 50 |
| C#Cc1ccc(-n2c(/C=C/c3cc(OC)c(OC)c(OC)c3)nc3ncccc3c2=O)cc1 | > 100 | > 100 | 70.5 | – | > 100 | 98 | – | 5.65 | 27.5 | 3.67 | 23 | 3.83 | > 100 | 9.74 | – | 12.9 | 5.33 | – | 3.84 | 25.6 |
| O=C1CC2Sc3ccccc3N=C2N1c1ccc(Cl)cc1Cl (stereo not given) | > 100 | > 100 | > 100 | > 100 | > 100 | > 100 | – | – | – | – | – | – | – | – | – | – | – | – | – | 72.1 |
| CC(C)=C1CCC(CN2CCCC2)C1=O (stereo not given) | > 100 | 34.6 | 37.2 | 44.3 | > 100 | 65.7 | 35.9 | – | – | – | – | – | > 100 | – | – | – | – | – | – | 50.8 |
| Cc1cccc(N2C(=O)/C(=C/c3ccc(N(CCC#N)CCC#N)cc3C)N=C2c2cc([N+](=O)[O-])ccc2Cl)c1 | > 100 | > 100 | > 100 | > 100 | > 100 | > 100 | > 100 | – | – | – | – | – | > 100 | – | – | – | – | – | – | > 100 |
| O=C(OCc1nc2ccc(Br)cc2c(=O)n1-c1ccccc1)c1ccccc1O | > 100 | > 100 | > 100 | > 100 | > 100 | > 100 | – | – | – | – | – | – | > 100 | – | – | – | – | – | – | > 100 |
| Cn1c(COC(=O)NCCN2CCOCC2)nc2c(N3CCOCC3)nc(-c3ccccc3)nc21 | 3.73 | 3.41 | 3.02 | 5.96 | 20.3 | 2.95 | – | 1.39 | 1.62 | 1.49 | 5.38 | 0.523 | > 100 | 1.56 | 0.972 | 4.38 | 1.38 | – | 0.521 | 4.03 |
| CCOC(=O)NNC(=O)NC12CC3CC(CC(C3)C1)C2 | > 100 | > 100 | > 100 | > 100 | > 100 | > 100 | – | – | – | – | – | – | > 100 | – | – | – | – | – | – | – |
| CCOC(=N)CC(=O)NC(C)c1ccccc1 (stereo not given) | > 100 | > 100 | > 100 | > 100 | > 100 | > 100 | > 100 | – | – | – | – | – | > 100 | – | – | – | – | – | – | > 100 |
| CCSc1nc(N)c2cnn(C)c2n1 | > 100 | 92.1 | > 100 | > 100 | 69.2 | 85.1 | – | 52.6 | 25.4 | 30.7 | 74 | 54.5 | > 100 | 33.6 | 59.9 | 27.4 | 33 | – | 52.1 | > 100 |
| O=C1/C(=C/c2ccccc2)CN(C(=O)OCC(Cl)(Cl)Cl)C/C1=C\c1ccccc1 | 20.5 | – | 11.9 | 10.3 | – | 15.3 | 6.23 | – | – | – | – | – | 5.91 | – | – | – | – | – | – | 3.38 |
| Cc1cccc(CC(C)(C)C)c1NC(=O)C(=O)C(C(=O)c1ccc2ccccc2c1)C1OC(=O)c2ccccc21 (stereo not given) | 40.9 | 25.2 | 27.4 | – | 7.12 | 30.6 | > 100 | – | – | – | – | – | – | – | – | – | – | – | – | – |
| Cc1[nH]c(=O)nc(N/N=C/c2ccc(O)cc2)c1C(=O)Nc1ccc(Cl)cc1 | > 100 | > 100 | > 100 | > 100 | > 100 | > 100 | > 100 | – | – | – | – | – | > 100 | – | – | – | – | – | – | > 100 |
| COc1cc(C(=O)/C=C/c2c(C(F)(F)F)nc3sccn23)cc(OC)c1OC | 18 | 3.13 | 3.67 | 5.81 | 5.54 | 3.57 | 3.61 | 3.44 | 1.71 | – | – | 1.74 | 6.27 | 1.59 | 1.92 | 2.17 | 1.74 | 0.54 | 1.83 | 7.63 |
